Source: patent publication US20230346791A1, “ATR INHIBITORS FOR THE TREATMENT OF CANCER” (AstraZeneca AB, priority 2020, published 2023)
Like-named read-outs stand apart in the source and are kept apart here.

Conditions: for dose-limiting toxicity (DLT): cohort of n=6 evaluable patients
Description: Overall Study Design: The study consisted of two parts, each evaluating the safety and tolerability of AZD6738 when given in combination with paclitaxel. An oral formulation of AZD6738 was used. The first part (Part A) was in combination with paclitaxel; the starting dose of 40 mg AZD6738 OD was escalated to reach a maximum tolerated dose in patients with advanced solid malignancies, as defined by dose-limiting toxicity. […] We made the number and doses of these cohorts flexible so that we could make adjustment as the PK data emerged. […] Dose escalations were conducted in each cohort independently; however, number and doses of the cohorts were to be subject to change as the PK data emerged.
Part A: We conducted a phase I trial for determining maximal tolerate dose (MTD) of AZD6738 when given in combination with fixed dose of paclitaxel in patients with refractory cancer. We used a rolling 6 design in this PART A. Treatment schedule was as follows. Start regimen (every 4 weeks): 40 mg OD dosing of AZD6738, 3 weeks on/ 1 week off; paclitaxel 80 mg/m2 on day 1, 8, 15 This part was in combination with paclitaxel of standard dose; starting dose of 40 mg AZD6738 OD was escalated to reach a maximum tolerated dose in metastatic solid cancer patients. Each cycle was composed of 4 weeks. The decision to dose escalate was to be made upon the assessment of the safety and tolerability data collected up until the time of study drug administration on Cycle 2, Day 1. This DLT assessment period was selected as the major toxicities leading to cessation of dose escalation in such studies (haematological, gastrointestinal, liver enzymes) were anticipated to present within this duration. Doses and/or schedules of AZD6738 were to be defined by the SRC. The cohort size of at least 3 and up to 6 patients (‘rolling six design’) was employed to improve the rate of accrual of patients to cohorts close to the presumed therapeutic dose by reducing the need for late replacement of patients who become non-evaluable during the DLT assessment period, whilst not compromising collection of safety data. […]

C[C@@H]1COCCN1c1cc(C2([S@](C)(=N)=O)CC2)nc(-c2cc[nH]c3nccc2-3)n1 [AZD6738, 4-{4-[(3R)-3-methylmorpholin-4-yl]-6-[1-((R)-S-methylsulfonimidoyl)cyclopropyl]pyrimidin-2-yl}-1H-pyrrolo[2,3-b]pyridine]
dose-limiting toxicity (DLT) (AZD6738 160 mg BD days 1-14 with paclitaxel): One dose-limiting toxicity (DLT) of neutropenic fever | dose-limiting toxicity (DLT) (AZD6738 240 mg BD days 1-14 with paclitaxel): One dose-limiting toxicity (DLT) of neutropenic fever | maximum tolerated dose of AZD6738 (days 1-14 of 28-day cycle, with paclitaxel 80 mg/m2, per protocol): 240 mg BID
